Measurements: patent publication US20040081973A1, “Cloning and characterization of a novel BK channel isoform highly expressed in glioma cells” (priority 2002, published 2004)
Values belong to the compound of their own block, whether it stands above or below them.

How the values were obtained:
Kca current = details: CEFs transformed with Rous sarcoma virus (Repp et al., 1993); cited from earlier work
hbr5 = biological target: T1, hbr5 (Homo sapiens, UniProt Q12791); assay: Tetrandrine inhibition of hbr5 currents in outside-out patches from HEK cells transfected with hbr5; type: cell-based; details: HEK293, 3 uM tetrandrine, voltage steps to +120 mV
T1 construct: expressed in transfected cells; host or cells: HEK cells

gBK = biological target: T2, gBK (Homo sapiens, UniProt Q12791); assay: Tetrandrine inhibition of gBK currents in outside-out patches; type: cell-based; details: 3 uM tetrandrine, voltage steps to +120 mV
T2 construct: Outside-out patches were isolated from STTG-1 cells; endogenous in cells
Description: Outside-out patches were isolated from STTG-1 cells and the voltage dependence of gBK currents were isolated with different [Ca^2+]i. Currents were integrated over the period of a voltage step and the average conductance was calculated from these areas (Ransom and Sontheimer, 2002). For each patch, 5-20 families of current traces over a range of voltages were obtained and the average conductance values at each membrane potential were determined. The normalized conductance was plotted as a function of membrane potential (activation curves) and fit to the Boltzman equation to obtain half-maximal voltages, V0.5. A total of 45 outside-out patches and their corresponding activation curves with [Ca^2+]i of 0 (10 mM EGTA added), 1.5×10−7 M and 2.1×10−6 M were determined. […] (FIGS. 11A and 11B). For comparison, the same set of experiments was performed on the hbr5 BK channel (Ransom and Sontheimer, 2002). V0.5 for hbr5 BK channel at [Ca^2+]i of 0 (10 mM EGTA added), 1.5×10−7 M and 2.1×10−6 M were +118 mV, +52 mV and −23 mV (FIGS. 12A and 12B).
If gBK channels are associated with β-subunits, then they should be sensitive to tetrandrine, a plant alkaloid. 3 uM tetrandrine has been reported to inhibit β-subunit-containing channels over 50%.

Kca = details: EGF and PDGF stimulation (Huang and Rane, 1994); cited from earlier work
[1] = biological target: glioma BK (gBK) channel, novel splice variant of hSlo alpha-subunit (human) (UniProt Q12791); assay: cell-based or functional assay
Sequence of glioma BK (gBK) channel, novel splice variant of hSlo alpha-subunit (human) (Q12791 other isoform, or with tags, fused parts or gaps mutant): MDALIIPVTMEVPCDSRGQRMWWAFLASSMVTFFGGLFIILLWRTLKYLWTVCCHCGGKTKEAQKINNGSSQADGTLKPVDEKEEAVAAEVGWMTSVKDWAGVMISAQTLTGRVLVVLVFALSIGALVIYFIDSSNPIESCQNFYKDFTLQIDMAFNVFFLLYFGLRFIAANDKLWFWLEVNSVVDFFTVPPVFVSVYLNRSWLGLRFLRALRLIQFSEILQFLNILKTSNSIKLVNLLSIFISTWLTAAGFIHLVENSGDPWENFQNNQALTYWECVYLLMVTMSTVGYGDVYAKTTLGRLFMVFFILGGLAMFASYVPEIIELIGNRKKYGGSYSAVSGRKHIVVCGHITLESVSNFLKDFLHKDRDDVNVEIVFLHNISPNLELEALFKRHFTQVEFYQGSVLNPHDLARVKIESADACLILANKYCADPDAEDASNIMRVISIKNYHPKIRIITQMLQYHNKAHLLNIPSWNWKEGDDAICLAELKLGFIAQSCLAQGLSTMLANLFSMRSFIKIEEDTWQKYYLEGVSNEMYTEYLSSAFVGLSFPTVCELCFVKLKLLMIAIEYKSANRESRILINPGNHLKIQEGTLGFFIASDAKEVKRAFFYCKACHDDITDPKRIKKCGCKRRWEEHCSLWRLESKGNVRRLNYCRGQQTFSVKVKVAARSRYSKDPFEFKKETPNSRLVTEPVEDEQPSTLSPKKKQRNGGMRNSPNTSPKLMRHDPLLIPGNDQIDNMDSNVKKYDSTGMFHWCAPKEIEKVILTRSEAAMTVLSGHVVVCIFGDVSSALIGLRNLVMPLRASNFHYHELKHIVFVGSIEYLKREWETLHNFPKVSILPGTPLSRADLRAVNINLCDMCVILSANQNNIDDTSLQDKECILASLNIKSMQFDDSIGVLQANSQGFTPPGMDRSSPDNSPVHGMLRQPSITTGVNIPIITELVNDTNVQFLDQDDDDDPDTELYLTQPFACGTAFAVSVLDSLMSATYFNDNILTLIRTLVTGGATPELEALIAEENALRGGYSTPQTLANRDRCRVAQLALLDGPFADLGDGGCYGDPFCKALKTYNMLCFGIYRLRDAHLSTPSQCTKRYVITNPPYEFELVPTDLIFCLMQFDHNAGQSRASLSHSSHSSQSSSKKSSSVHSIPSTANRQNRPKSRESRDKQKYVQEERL

T1 sequence (Q12791 1-1207 isoform Q12791-4): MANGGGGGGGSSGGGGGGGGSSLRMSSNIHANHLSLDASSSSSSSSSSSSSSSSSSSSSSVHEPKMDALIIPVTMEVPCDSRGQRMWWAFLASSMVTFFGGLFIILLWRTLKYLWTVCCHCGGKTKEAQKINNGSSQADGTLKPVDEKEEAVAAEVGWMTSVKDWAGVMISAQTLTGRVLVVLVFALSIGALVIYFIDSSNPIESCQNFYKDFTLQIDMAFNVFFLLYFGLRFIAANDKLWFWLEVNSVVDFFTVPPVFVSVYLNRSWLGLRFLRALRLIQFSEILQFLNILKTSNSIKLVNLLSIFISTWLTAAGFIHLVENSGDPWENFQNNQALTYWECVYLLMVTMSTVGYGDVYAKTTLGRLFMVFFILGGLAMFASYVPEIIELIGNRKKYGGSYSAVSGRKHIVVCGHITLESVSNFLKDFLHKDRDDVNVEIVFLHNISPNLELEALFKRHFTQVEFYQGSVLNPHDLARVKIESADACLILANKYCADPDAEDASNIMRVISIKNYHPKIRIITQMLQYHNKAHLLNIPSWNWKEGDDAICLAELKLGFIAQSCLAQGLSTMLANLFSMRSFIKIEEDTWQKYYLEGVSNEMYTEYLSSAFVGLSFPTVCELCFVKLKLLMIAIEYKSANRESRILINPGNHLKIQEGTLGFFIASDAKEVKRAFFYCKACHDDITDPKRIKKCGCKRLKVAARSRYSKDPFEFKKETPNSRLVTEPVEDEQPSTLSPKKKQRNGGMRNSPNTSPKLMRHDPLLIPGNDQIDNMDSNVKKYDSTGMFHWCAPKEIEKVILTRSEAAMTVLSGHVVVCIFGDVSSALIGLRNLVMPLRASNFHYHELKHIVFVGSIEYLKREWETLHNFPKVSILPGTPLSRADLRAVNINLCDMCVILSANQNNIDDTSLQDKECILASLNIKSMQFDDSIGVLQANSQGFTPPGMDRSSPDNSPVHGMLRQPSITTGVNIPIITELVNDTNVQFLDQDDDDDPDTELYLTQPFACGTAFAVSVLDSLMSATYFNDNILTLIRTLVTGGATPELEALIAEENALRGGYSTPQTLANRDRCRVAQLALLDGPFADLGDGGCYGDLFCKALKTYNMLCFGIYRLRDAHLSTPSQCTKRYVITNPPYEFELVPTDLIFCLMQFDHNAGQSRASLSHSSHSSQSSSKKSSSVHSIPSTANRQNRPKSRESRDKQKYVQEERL
T2 sequence (Q12791 1-1239 isoform Q12791-7): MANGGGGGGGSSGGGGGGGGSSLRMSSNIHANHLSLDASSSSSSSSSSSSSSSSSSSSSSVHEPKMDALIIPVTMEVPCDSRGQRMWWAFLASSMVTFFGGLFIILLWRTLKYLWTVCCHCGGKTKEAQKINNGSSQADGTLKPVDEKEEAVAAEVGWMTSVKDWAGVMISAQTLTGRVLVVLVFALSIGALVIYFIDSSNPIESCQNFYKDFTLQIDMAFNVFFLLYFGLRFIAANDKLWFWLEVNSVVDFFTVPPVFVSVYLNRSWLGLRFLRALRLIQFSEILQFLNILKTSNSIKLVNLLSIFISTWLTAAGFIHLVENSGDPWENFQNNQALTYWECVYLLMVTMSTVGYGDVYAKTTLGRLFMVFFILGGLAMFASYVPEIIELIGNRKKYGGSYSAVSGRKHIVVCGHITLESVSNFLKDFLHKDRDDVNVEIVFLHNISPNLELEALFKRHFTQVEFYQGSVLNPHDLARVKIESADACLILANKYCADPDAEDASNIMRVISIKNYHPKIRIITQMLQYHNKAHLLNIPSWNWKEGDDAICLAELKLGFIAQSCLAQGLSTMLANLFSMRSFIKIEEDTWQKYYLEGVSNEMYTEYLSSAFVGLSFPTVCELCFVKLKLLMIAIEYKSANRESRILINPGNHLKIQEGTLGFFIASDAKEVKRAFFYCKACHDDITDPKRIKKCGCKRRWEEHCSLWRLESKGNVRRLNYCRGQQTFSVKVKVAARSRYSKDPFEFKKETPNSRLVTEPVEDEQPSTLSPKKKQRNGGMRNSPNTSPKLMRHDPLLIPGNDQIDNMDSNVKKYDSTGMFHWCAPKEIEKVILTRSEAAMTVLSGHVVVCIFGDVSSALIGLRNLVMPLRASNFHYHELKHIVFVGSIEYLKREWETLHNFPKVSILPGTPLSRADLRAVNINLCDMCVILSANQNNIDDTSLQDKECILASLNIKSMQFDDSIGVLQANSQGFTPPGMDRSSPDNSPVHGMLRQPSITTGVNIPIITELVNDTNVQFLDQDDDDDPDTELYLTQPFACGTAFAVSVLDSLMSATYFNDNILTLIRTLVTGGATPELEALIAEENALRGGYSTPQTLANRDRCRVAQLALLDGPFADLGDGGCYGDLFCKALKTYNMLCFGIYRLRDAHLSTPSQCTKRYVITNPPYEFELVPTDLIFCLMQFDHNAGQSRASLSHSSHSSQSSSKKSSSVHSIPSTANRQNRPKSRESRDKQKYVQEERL

Compound: CC[N+](CC)(CC)CC [TEA]
- IC50 (Kca current): 1800 µM

- inhibition at 3 µM (hbr5): 14%
- inhibition at 3 µM (gBK): 63%
Compound: COc1ccc2cc1Oc1ccc(cc1)C[C@H]1c3cc(c(OC)cc3CCN1C)Oc1c(OC)c(OC)cc3c1[C@H](C2)N(C)CC3 [tetrandrine]

Compound: charybdotoxin [ChTX]
- Effect on mitogenic stimulation (Kca): inhibited the stimulatory effect of the mitogen
- IC50 (Kca current): 0.019 µM

Compound: iberiotoxin (IbTX) (from UniProt P24663 1-37) (peptide)
- inhibition of total outward currents in gBK injected oocytes by 100 nM IbTX [1]: > 60%
